In US20040005299A1, “Method for producing pseudo islets” (Bayer Pharmaceuticals Corporation, priority 2002, published 2004):
Read-outs that look alike come from different tables or passages of the source. One block for each compound: values may come before it.

Tests used:
[1] = system: pseudo islets (dispersed islet cells); experiment: cells; assay type: cell-based, Sprague Dawley rats; conditions: for EC50: 8 mM glucose, read-out: EC50 on insulin release; for IC50: dose-dependent, read-out: IC50 of inhibition of glucose-stimulated insulin release
Method: Pancreata from four Sprague Dawley rats were divided into small pieces approximately 1 mm^2 or smaller in size. The tissue was then rinsed three times with Hanks-Hepes buffer (127 mM NaCl, 5.4 mM KCl, 0.34 mM Na2HPO4, 4.4 mM KH2PO4, 20 mM HEPES, 1.2 mM CaCl2/5 mM glucose), and digested with collagenase (Liberase, 0.25 mg/ml, Roche Diagnostic Corp., Indianapolis, Ind.) at 37° C. in a water bath shaker for 10 minutes.
The digested pancreata tissue was rinsed three times with 50 ml of Hanks-Hepes buffer to remove the collagenase. The tissue pellet was then filtered through a 250 μm filter and the filtrate was mixed with 16 ml of 27% Ficoll (Sigma, St. Louis, Mo.) w/v in Hanks-Hepes buffer. Three layers of Ficoll (23%, 20.5%, and 11%, respectively; 8 ml of each concentration) were then loaded on top of the mixture of islet tissue in 27% Ficoll to form a gradient.
The Ficoll gradient was then centrifuged at 1,600 rpm for 10 minutes at room temperature. The pancreatic islets were concentrated at the interphase between 11% and 20.5%, and between 20.5% and 23% depending on the size of islets. The islets were collected from the two interphases and rinsed twice with Ca^++-free Hanks-Hepes buffer. The islets were then suspended in 5 ml Ca^++-free Hanks-Hepes buffer containing 1 mM EDTA and incubated for 8 minutes at room temperature.
Trypsin and DNAse I were added to the islet suspension for a final concentration of 25 μg/ml and 2 μg/ml, respectively. This suspension was incubated with shaking at 30° C. for 10 minutes. The trypsin digestion was stopped by adding 40 ml RPMI 1640 (GIBCO Life Technologies, Invitrogen, Carlsbad, Calif.) with 10% FBS. The trypsin digested islet cells were then filtered through a 63 μm nylon filter (PGC Scientific, Frederick, Md.) to remove large cell clusters.
The dispersed islet cells were then washed, counted using hemacytometer under the microscope, and seeded into “V-bottom” 96-well plates (2,500 cells per well). However, a range of 1,000 to 10,000 cells per well may used. The dispersed islet cell suspension was then centrifuged at 1,000 rpm for 5 minutes. The Hanks-Hepes buffer was removed and replaced with 200 μl RPMI 1640 medium containing 10% FBS, 1% Penicillin-Streptomycin, and 2 mM L-glutamine. Next, the 96-well plates were centrifuged at 1,000 rpm for 5 minutes to collect the dispersed islet cells concentrated at the V-bottom of the plate forming pseudo islets. These pseudo islets were then cultured overnight in a cell culture incubator at 37° C. with 5% CO2, and then used for assays.
(§1) Pseudo islets were prepared by the method described in Example 1. Following an overnight incubation, the RPMI 1640 medium was removed and replaced by 100 μl Krebs-Ringer-Hepes buffer (115 mM NaCl, 5.0 mM KCl, 24 mM NaHCO3, 2.2 mM CaCl2, 1 mM MgCl2, 20 mM HEPES, 0.25% BSA, 0.002% Phenol Red, pH 7.35-7.40). The cell suspension was then centrifuged for 5 minutes at 1,000 rpm to pellet the dispersed islet cells.
(§2) Pseudo islets in 96-well plates were incubated in a water bath at 37° C. continuously gassed with 95% O2/5% CO2 for pre-incubation for 30 minutes. The pre-incubation buffer was removed and replaced with 50 μl incubation buffer (Krebs-Ringer-Hepes buffer, pH 7.35-7.40) containing various test substrates.
The 96-well plate was centrifuged again at 1,000 rpm for 5 minutes to form pseudo islets. These pseudo islets in 96-well plates were statically incubated in a water bath at 37° C. continuously gassed with 95% O2/5% CO2 for 60 minutes. The incubation buffer (25 μl) was collected after the 60-minute incubation and used for an insulin content assay (ELISA assay, ALPCO, N.H.).

[2] = system: pseudo islets co-cultured with fibroblasts; experiment: Insulin release from pseudo islets co-cultured with fibroblasts; assay type: cell-based, Sprague Dawley rats; conditions: increasing amounts of GLP-1
Method: Dispersed islet cells (prepared by the method described in Example 1) were washed with regular RPMI 1640 medium with 10% FBS, counted using hemacytometer under the microscope, and seeded into “V-bottom” 96-well plates with fibroblasts (2,500 islet cells and 1,250 fibroblasts cells per well). The cell suspension was then centrifuged at 1,000 rpm for 5 minutes to collect the dispersed islet cells concentrated at the V-bottom of the plate forming pseudo islets. These pseudo islets were then co-cultured with the fibroblasts cells overnight in a cell culture incubator at 37° C. with 5% CO2, and then used for assays.
as §1
as §2, with “substrates. […]” for “substrates.”

Compound: CC(=O)OCC[N+](C)(C)C [Ach, Acetylcholine]
EC50 ([1]; Rattus norvegicus): 10100 nM

Compound: CC[C@H](C)[C@H](NC(=O)[C@H](Cc1ccccc1)NC(=O)[C@H](CCC(=O)O)NC(=O)[C@H](CCCCN)NC(=O)[C@H](C)NC(=O)[C@H](C)NC(=O)[C@H](CCC(N)=O)NC(=O)CNC(=O)[C@H](CCC(=O)O)NC(=O)[C@H](CC(C)C)NC(=O)[C@H](Cc1ccc(O)cc1)NC(=O)[C@H](CO)NC(=O)[C@H](CO)NC(=O)[C@@H](NC(=O)[C@H](CC(=O)O)NC(=O)[C@H](CO)NC(=O)[C@@H](NC(=O)[C@H](Cc1ccccc1)NC(=O)[C@@H](NC(=O)CNC(=O)[C@H](CCC(=O)O)NC(=O)[C@H](C)NC(=O)[C@@H](N)Cc1c[nH]cn1)[C@@H](C)O)[C@@H](C)O)C(C)C)C(=O)N[C@@H](C)C(=O)N[C@@H](Cc1c[nH]c2ccccc12)C(=O)N[C@@H](CC(C)C)C(=O)N[C@H](C(=O)N[C@@H](CCCCN)C(=O)NCC(=O)N[C@@H](CCCNC(=N)N)C(N)=O)C(C)C [GLP-1]
GLP-1 mediated insulin secretion on co-culture with fibroblasts [2]: enhanced

Compound: CC(C)Cn1c(=O)n(C)c(=O)c2[nH]cnc21 [IBMX]
EC50 [1]: 21900 nM

Compound: C[C@H](N)C(=O)NCC(=O)N[C@H]1CSSC[C@@H](C(=O)O)NC(=O)[C@H](CO)NC(=O)[C@H]([C@@H](C)O)NC(=O)[C@H](Cc2ccccc2)NC(=O)[C@H]([C@@H](C)O)NC(=O)[C@H](CCCCN)NC(=O)[C@H](Cc2c[nH]c3ccccc23)NC(=O)[C@H](Cc2ccccc2)NC(=O)[C@H](Cc2ccccc2)NC(=O)[C@H](CC(N)=O)NC(=O)[C@H](CCCCN)NC1=O [somatostain]
IC50 [1]: 0.9 nM

The next lines start with the values.

IC50 ([1]; Rattus norvegicus): 56.7 nM
Compound: NC[C@H](O)c1ccc(O)c(O)c1 [NE, norepinephrine]

EC50 ([1]; Rattus norvegicus): 900 nM
Compound: C=C[C@@]1(C)CC(=O)[C@]2(O)[C@@]3(C)[C@@H](O)CCC(C)(C)[C@@H]3[C@H](O)[C@H](OC(C)=O)[C@@]2(C)O1 [forskolin]

EC50 ([1]; Rattus norvegicus): 370 nM
Compound: COc1ccc(Cl)cc1C(=O)NCCc1ccc(S(=O)(=O)NC(=O)NC2CCCCC2)cc1 [glybenclamide]
